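The compound was tested at five concentrations on cells cultured in 96-well plates, with a 48-hour exposure period. GI50 is the concentration that inhibits growth by half.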 Active and inactive are the calls of the source. Rule as the data show it: active = GI50 up to about 1.1 µM and inactive = higher.
What was measured:
Experiment in all cases: NCI tumour cell line growth inhibition, 48 h
786-0 = test system: 786-0
Malme-3M = test system: Malme-3M
CCRF-CEM = test system: CCRF-CEM
A549 = test system: A549
SR = test system: SR
HCC 2998 = test system: HCC 2998
Hs-578T = test system: Hs-578T
BT-549 = test system: BT-549
OVCAR-8 = test system: OVCAR-8
PC-3 = test system: PC-3
OVCAR-5 = test system: OVCAR-5
COLO 205 = test system: COLO 205
SK-MEL-28 = test system: SK-MEL-28
LOX IMVI = test system: LOX IMVI
MOLT-4 = test system: MOLT-4
SF-539 = test system: SF-539
MDA-N = test system: MDA-N
U-251 = test system: U-251
OVCAR-3 = test system: OVCAR-3
SK-MEL-2 = test system: SK-MEL-2

Row | SMILES | GI50 (786-0) | GI50 (Malme-3M) | GI50 (CCRF-CEM) | GI50 (A549) | GI50 (SR) | GI50 (HCC 2998) | GI50 (Hs-578T) | GI50 (BT-549) | GI50 (OVCAR-8) | GI50 (PC-3) | GI50 (OVCAR-5) | GI50 (COLO 205) | GI50 (SK-MEL-28) | GI50 (LOX IMVI) | GI50 (MOLT-4) | GI50 (SF-539) | GI50 (MDA-N) | GI50 (U-251) | GI50 (OVCAR-3) | GI50 (SK-MEL-2)
1 | CCOc1ccc(/C=N/[N+](C)(C)C)cc1OCC | > 10 µM (inactive) | > 10 µM (inactive) | > 10 µM (inactive) | > 10 µM (inactive) | > 10 µM (inactive) | > 10 µM (inactive) | > 10 µM (inactive) | > 10 µM (inactive) | > 10 µM (inactive) | > 10 µM (inactive) | > 10 µM (inactive) | > 10 µM (inactive) | > 10 µM (inactive) | > 10 µM (inactive) | > 10 µM (inactive) | > 10 µM (inactive) | > 10 µM (inactive) | > 10 µM (inactive) | > 10 µM (inactive) | –
2 | CC(=O)OCC1=CC2OC(=O)C3=COC(OC4OC(CO)C(O)C(O)C4O)C1C32 (centres undefined) | > 100 µM (inactive) | – | > 100 µM (inactive) | > 100 µM (inactive) | 57 µM (inactive) | > 100 µM (inactive) | > 100 µM (inactive) | > 100 µM (inactive) | > 100 µM (inactive) | > 100 µM (inactive) | > 100 µM (inactive) | > 100 µM (inactive) | > 100 µM (inactive) | > 100 µM (inactive) | – | > 100 µM (inactive) | > 100 µM (inactive) | > 100 µM (inactive) | > 100 µM (inactive) | > 100 µM (inactive)
3 | S=C(Nc1c2c(nc3ccccc13)CCCC2)Nc1c2c(nc3ccccc13)CCCC2 | > 100 µM (inactive) | > 100 µM (inactive) | > 100 µM (inactive) | > 100 µM (inactive) | > 100 µM (inactive) | > 100 µM (inactive) | > 100 µM (inactive) | > 100 µM (inactive) | > 100 µM (inactive) | > 100 µM (inactive) | > 100 µM (inactive) | > 100 µM (inactive) | > 100 µM (inactive) | – | > 100 µM (inactive) | – | > 100 µM (inactive) | > 100 µM (inactive) | > 100 µM (inactive) | > 100 µM (inactive)
4 | CNc1nc(N)nc(Nc2ccc(I)cc2)c1N=O | > 100 µM (inactive) | > 100 µM (inactive) | > 100 µM (inactive) | > 100 µM (inactive) | > 100 µM (inactive) | > 100 µM (inactive) | 39.1 µM (inactive) | > 100 µM (inactive) | > 100 µM (inactive) | > 100 µM (inactive) | > 100 µM (inactive) | 36.4 µM (inactive) | > 100 µM (inactive) | > 100 µM (inactive) | 78.5 µM (inactive) | > 100 µM (inactive) | > 100 µM (inactive) | – | 61 µM (inactive) | > 100 µM (inactive)
5 | Cc1cccc(C)c1NC(=O)C(=O)C(c1ccccc1Cl)S(=O)(=O)Cc1ccccc1Cl (centres undefined) | 27.7 µM (inactive) | – | > 100 µM (inactive) | > 100 µM (inactive) | > 100 µM (inactive) | > 100 µM (inactive) | 41.4 µM (inactive) | 35.7 µM (inactive) | > 37.8 µM (inactive) | > 100 µM (inactive) | > 100 µM (inactive) | > 100 µM (inactive) | > 100 µM (inactive) | > 100 µM (inactive) | > 100 µM (inactive) | 16 µM (inactive) | > 100 µM (inactive) | 40.6 µM (inactive) | > 100 µM (inactive) | > 83.8 µM (inactive)
6 | COc1ccc(-c2nnc3n(C)c4ccccc4n3c2=O)cc1 | 37.2 µM (inactive) | > 100 µM (inactive) | > 100 µM (inactive) | > 100 µM (inactive) | > 100 µM (inactive) | > 100 µM (inactive) | 33 µM (inactive) | 72.4 µM (inactive) | 56.1 µM (inactive) | > 100 µM (inactive) | > 100 µM (inactive) | > 100 µM (inactive) | > 100 µM (inactive) | > 100 µM (inactive) | > 100 µM (inactive) | 32.7 µM (inactive) | > 100 µM (inactive) | 27.7 µM (inactive) | – | > 100 µM (inactive)
7 | CN(C)CCCNC(=O)c1c(O)c2ccccc2[nH]c1=O | > 100 µM (inactive) | > 100 µM (inactive) | > 100 µM (inactive) | > 100 µM (inactive) | > 100 µM (inactive) | > 100 µM (inactive) | > 100 µM (inactive) | > 100 µM (inactive) | > 100 µM (inactive) | > 100 µM (inactive) | > 100 µM (inactive) | 41.1 µM (inactive) | > 100 µM (inactive) | > 100 µM (inactive) | > 100 µM (inactive) | > 100 µM (inactive) | > 100 µM (inactive) | – | > 100 µM (inactive) | > 100 µM (inactive)
8 | CCOC(=O)c1cc2ncccc2c2ccccc12 | > 100 µM (inactive) | > 100 µM (inactive) | > 100 µM (inactive) | > 100 µM (inactive) | > 100 µM (inactive) | > 100 µM (inactive) | > 100 µM (inactive) | > 100 µM (inactive) | > 100 µM (inactive) | > 100 µM (inactive) | > 100 µM (inactive) | > 100 µM (inactive) | > 100 µM (inactive) | > 100 µM (inactive) | > 100 µM (inactive) | – | > 100 µM (inactive) | > 100 µM (inactive) | > 100 µM (inactive) | > 100 µM (inactive)
9 | CC(=O)O[C@H]1CC[C@H]2[C@@H]3CCC4=C(C(=O)C=CC4(C)OC(C)=O)[C@H]3CC[C@]12C (some centres undefined) | 86.7 µM (inactive) | > 100 µM (inactive) | 31.6 µM (inactive) | 90.2 µM (inactive) | 47.3 µM (inactive) | 38.3 µM (inactive) | > 100 µM (inactive) | 26.2 µM (inactive) | 39.5 µM (inactive) | 48 µM (inactive) | > 100 µM (inactive) | – | > 100 µM (inactive) | 38.1 µM (inactive) | 33.9 µM (inactive) | 43.6 µM (inactive) | 34.6 µM (inactive) | 82.6 µM (inactive) | 47.6 µM (inactive) | –
10 | S=C(N/N=C/c1ccccn1)N1CCCCC1 | < 0.0137 µM (active) | < 0.0397 µM (active) | < 0.01 µM (active) | < 0.0129 µM (active) | < 0.01 µM (active) | 1.22 µM (inactive) | 0.902 µM (active) | 0.0249 µM (active) | < 0.01 µM (active) | < 0.01 µM (active) | – | < 0.01 µM (active) | 0.297 µM (active) | < 0.01 µM (active) | < 0.01 µM (active) | 0.135 µM (active) | 0.271 µM (active) | < 0.0126 µM (active) | < 0.01 µM (active) | 0.0695 µM (active)
11 | Clc1ccc(OCc2nnc(COc3ccc(OCc4nnc(COc5ccc(Cl)cc5Cl)o4)c(Cl)c3)o2)c(Cl)c1 | 30.8 µM (inactive) | 37.6 µM (inactive) | 17.5 µM (inactive) | 32 µM (inactive) | 20.9 µM (inactive) | 28.7 µM (inactive) | 42.5 µM (inactive) | 69.2 µM (inactive) | 41.4 µM (inactive) | 29.9 µM (inactive) | 36.2 µM (inactive) | 24.4 µM (inactive) | 46.5 µM (inactive) | 17.3 µM (inactive) | – | – | 47.3 µM (inactive) | 23 µM (inactive) | 25.2 µM (inactive) | 33.8 µM (inactive)
12 | CC(C)C(O)(C(C)C)C(C)C | > 100 µM (inactive) | > 100 µM (inactive) | > 100 µM (inactive) | > 100 µM (inactive) | > 100 µM (inactive) | – | > 100 µM (inactive) | > 100 µM (inactive) | > 100 µM (inactive) | > 100 µM (inactive) | > 100 µM (inactive) | > 100 µM (inactive) | > 100 µM (inactive) | > 100 µM (inactive) | > 100 µM (inactive) | > 100 µM (inactive) | > 100 µM (inactive) | > 100 µM (inactive) | > 100 µM (inactive) | > 100 µM (inactive)
13 | O=[N+]([O-])c1cccc2nc3ccccc3c(NCCN(CCO)CCO)c12 | 0.00429 µM (active) | 0.00296 µM (active) | – | 0.00272 µM (active) | 0.00123 µM (active) | 0.00235 µM (active) | 0.00515 µM (active) | 0.00308 µM (active) | 0.00351 µM (active) | 0.00213 µM (active) | 0.00501 µM (active) | 0.000904 µM (active) | – | 0.00701 µM (active) | – | 0.00689 µM (active) | 0.00143 µM (active) | 0.00391 µM (active) | 0.00536 µM (active) | 0.00527 µM (active)
14 | CCCCc1ccc(Nc2nc(Cl)c3ncn(COCCOC(C)=O)c3n2)cc1 | 16 µM (inactive) | 17.3 µM (inactive) | 35.6 µM (inactive) | 20.8 µM (inactive) | 21.2 µM (inactive) | 11.9 µM (inactive) | 21.7 µM (inactive) | 16.5 µM (inactive) | 18.5 µM (inactive) | 16.8 µM (inactive) | 17.9 µM (inactive) | 23.5 µM (inactive) | – | 14.8 µM (inactive) | 21.2 µM (inactive) | 19.5 µM (inactive) | 18.8 µM (inactive) | 18.3 µM (inactive) | 20.2 µM (inactive) | 14.8 µM (inactive)
15 | O=C1C=C2CO[C@H]3OC[C@H](O)[C@@H]1[C@@H]23 | 35 µM (inactive) | 21.6 µM (inactive) | 19 µM (inactive) | > 100 µM (inactive) | 22.6 µM (inactive) | 29 µM (inactive) | > 100 µM (inactive) | 53.1 µM (inactive) | 32 µM (inactive) | > 100 µM (inactive) | 73.5 µM (inactive) | 16.4 µM (inactive) | 33.6 µM (inactive) | 32.7 µM (inactive) | 28.9 µM (inactive) | – | 35.2 µM (inactive) | 19.7 µM (inactive) | > 100 µM (inactive) | 16.3 µM (inactive)

Source: ChEMBL document CHEMBL1201862, “PubChem BioAssay data set” (2004)
